# Measured values: US20250269031A1, “MITOCHONDRIA TARGETING QUINOLINIUM-DRUG CONJUGATES AND THEIR SELF-ASSEMBLING NANOFORMULATIONS FOR CANCER THERAPY” (THE REGENTS OF THE UNIVERSITY OF CALIFORNIA, priority 2020, published 2025)
# Like-named read-outs stand apart in the source and are kept apart here.
# Assays:
# CSC cells [1] = assay: Seahorse assay (oxygen consumption rate); format: cell-based; conditions: 24 h
# Method: Seahorse assay. CSC cells (2×10^4 cells per well) were treated as indicated for 24 h. The Oxygen Consumption Rate (OCR) were measured by the Agilent Seahorse XF analyzer.
# CSC cells [2] = assay: Mitochondria membrane potential (JC-1), CSC; format: cell-based; conditions: 24 h
# Method: Mitochondria membrane potential. JC-1 dye was used as an indicator of mitochondrial membrane potential. Briefly, Cells (2×10^4 cells per well) were treated as indicated for 24 h, washed and cultured with fresh medium. Then 0.5 μg/mL JC-1 was added for another 30 min incubation. Images were captured by CLSM.
# [3] = tested on: Pancreatic cancer stem cells (CSC); assay: Cell viability assay, pancreatic cancer stem cells; format: cell-based
# Method: Cell viability assay. Pancreatic cancer stem cells (CSC, 5×10^3 cells per well) was plated in 96-well plates, incubated overnight, and then were treated with different concentrations of agents as indicated. After 72 h treatment, cell viability was quantified using the CellTiter-Glo assay Cell viability curves and the chemical structures of LM, LND, and m104 are shown in FIG. 31A and FIG. 31B.
# [4] = tested on: Pancreatic cancer stem cells; assay: Cell growth assay; format: cell-based; conditions: 2 μM
# Method: Cell growth. Pancreatic cancer stem cells were plated in 6-well plates (50,000 cell per well) and treated as indicated and were counted manually every 24 h. The cell growth is plotted over time in FIG. 31C.
# [5] = tested on: Pancreatic cancer stem cells; assay: Sphere formation; format: cell-based; conditions: 5 μM, 10 days
# Method: Pancreatic cancer stem cells (3000 cells per well) were mixed with matrigel and medium, and then placed in 24-well plates with pre-embedded matrigel and medium. After 24 h incubation, CSC cells were then treated with different agents as indicated and cultured for 10 days. The cells were imaged as shown in FIG. 33A and the sphere diameters were calculated by ImageJ and are plotted in FIG. 33B.
# [6] = tested on: CSC spheres (with Stella cell); assay: Sphere growth, CSC spheres with Stella cell; format: cell-based; conditions: 5 μM
# Method: Sphere growth. […] CSC cells (800 cells per well) and stella cells (400 cells per well) were plated together in 96-well low-attachment plates and incubated overnight. CSC spheres then were treated with different agents as indicated. Spheres growth was monitored by CLSM (every two days).
# Bxpc-3 and AsPc cells = assay: Cell viability, Bxpc-3 and AsPc; format: cell-based; conditions: 72 h treatment
# Method: Cell viability. Bxpc-3 and AsPc cells (CSC, 5×10^3 cells per well) was plated in 96-well plates, incubated overnight, and then were treated with different concentrations of agents as indicated. After 72 h treatment, cell viability was quantified using the CellTiter-Glo assay.
# subcutaneous OSC-3 tumor [7] = assay: In vivo anticancer study, subcutaneous oral cancer model; set-up: species or system nude mice; conditions: for H&E staining of tumors: 24 h drug, then laser; for antitumor effect: with laser; for antitumor efficacy: without laser
# From the text: (§1) Female athymic nude mice, 6-week-old, were purchased from Envigo (Indianapolis, IN, USA). All animal experiments were strictly performed in compliance with the protocol (#20265) approved by the Institutional Animal Care and Use Committee at the University of California, Davis. The subcutaneous and orthotopic tumor models were established by inoculated OSC-3 cells into both flanks (5×10^6 cells per tumor) or lower lips (1×10^6 cells per tumor) of nude mice. When the subcutaneous tumors reached about 80 mm^3 and orthotopic tumors reached about 50 mm^3, the mice started to be treated as indicated.
# Laser (680 nm) treatment was conduct by a laser device within an energy of 0.2 W cm^−2 for 6 min (Shanghai Xilong Optoelectronics Technology, China). […] The drug was intratumorally injected into mice at a dose of 1 mM (10 nmol per 50 mm^3 tumor). Laser treatment was performed for a total of four times, one each on days 1, 2, 5, and 6 post-injection of drugs. The relative tumor value and body weight were recorded every two days. In subcutaneous models, the tumors in the right flank of mice were subjected to laser treatment, while the left tumors were not. In orthotopic models, all tumors were treated with the laser treatment. The temperature of tumor surface was monitored using a thermal camera (FLIR Systems, USA) immediately after laser treatment. ROS production in the tumor after light treatment was also measured using DCF-DA as an indicator. Briefly, the tumor was treated with different drugs via intratumoral injection at first. Then, the mice with tumors were treated with the laser at 1st, 2nd, 5th, and 6th day independently. After each light treatment, the mice were sacrificed immediately, and the obtained tumors were cut into small pieces and immersed in the DCF-DA solutions for 10 min. Finally, the tumors pieces were imaged by the ChemiDoc™ MP imaging system with the FITC channel. The fluorescence intensity of DCF-DA was quantified by Image J software. Mice were sacrificed after the first light treatment to obtain tumor and organs tissue for TEM, H&E, and IHC evaluation.
# OSC-3 cells [8] = assay: Cell TEM study of mitochondria morphology; format: cell-based; conditions: 0.5 μM, 24 h
# OSC-3 cells [9] = assay: Mitochondrial membrane potential assay (JC-1); format: cell-based; conditions: 1 μM, with light
# Method: The mitochondrial membrane potential was determined using the dye JC-1 as a probe (Thermo Fisher Scientific, USA). Briefly, OSC-3 cells (2×10^4 cells per well) were treated with drugs (1 μM) for 24 h. […] JC-1 (5 μg mL^−1) was added to incubate for 20 min. Cell imaging was performed on a CLSM (Carl Zeiss, Germany). The ratio of red/green fluorescence intensity was calculated by ImageJ software.
# OSC-3 cells [10] = assay: Cell viability assay (CellTiter-Glo), OSC-3; format: cell-based; conditions: for IC50: read-out: IC50 cytotoxicity; for anticancer effect: OSC-3, with light, 0.3 μM to 1 μM
# Method: OSC-3, BXPC-3, AsPC-1, PANC-1, UM-UC-3, 5637, or IMR90 cells were seeded in 96-well plates at a density of 5×10^3 cells per well and were grown overnight. Cells were incubated with various concentrations of drugs for 24 h, followed washing with PBS three times, and adding 100 μL fresh medium. For light-treated groups, cells were irradiated for 30 s using a 633-nm LED array (Omnilux new-U) at a power density of 30 mW cm^−2 at room temperature and then were cultured for another 24 h in parallel with non-light treated groups. Cell viability was quantified using the CellTiter-Glo assay (Promega, USA).
# OSC-3 tumors = assay: Intratumoral ROS production (DCF-DA, ex vivo imaging); format: in vivo, nude mice; conditions: laser at days 1, 2, 5, 6 post-injection
# Method: Laser (680 nm) treatment was conduct by a laser device within an energy of 0.2 W cm^−2 for 6 min (Shanghai Xilong Optoelectronics Technology, China). Mice bearing subcutaneous and orthotopic tumors were randomly divided into four groups (n=6): Vehicle (PBS), DQA, PA, and PQC NFs. The drug was intratumorally injected into mice at a dose of 1 mM (10 nmol per 50 mm^3 tumor). Laser treatment was performed for a total of four times, one each on days 1, 2, 5, and 6 post-injection of drugs. The relative tumor value and body weight were recorded every two days. In subcutaneous models, the tumors in the right flank of mice were subjected to laser treatment, while the left tumors were not. In orthotopic models, all tumors were treated with the laser treatment. The temperature of tumor surface was monitored using a thermal camera (FLIR Systems, USA) immediately after laser treatment. ROS production in the tumor after light treatment was also measured using DCF-DA as an indicator. Briefly, the tumor was treated with different drugs via intratumoral injection at first. Then, the mice with tumors were treated with the laser at 1st, 2nd, 5th, and 6th day independently. […] The fluorescence intensity of DCF-DA was quantified by Image J software. […]
# OSC-3 cells [11] = assay: Colocalization assay (MitoTracker, LysoTracker, CLSM); format: cell-based; conditions: 2 μM, 4 h
# Method: OSC-3 cells were treated with PQC NFs (2 μM) for various times (from 5 min to 8 h) or with PA (2 μM) for 4 h, followed by incubation with LysoTracker Green (Thermo Fisher Scientific, USA) and MitoTracker Red (Cell Signaling Technology, USA) for 30 min. Cells were visualized on confocal laser scanning microscopy (CLSM) (Carl Zeiss, Germany) immediately to investigate the subcellular localization. Signals of PQC NPs and PA were observed on the Cy5 channel. LysoTracker and MitoTracker were observed according the manufacturer's instructions. The corresponding Pearson correlation coefficient was calculated by ImageJ software.
# subcutaneous OSC-3 tumor [12] = assay: In vivo fluorescence imaging, tumor retention; set-up: species or system nude mice; conditions: intratumoral injection, 10 nmol per 50 mm^3
# From the text: as §1
# The subcutaneous tumor model was used in fluorescence imaging study in vivo of PA and PQC NFs. PA and PQC NFs (10 nmol per 50 mm^3 tumor) were administered by intratumoral injection. Fluorescence imaging were performed on a ChemiDoc™ MP imaging system (Bio-Rad, USA) at different time points post-injection.
# OSC-3 cells [13] = assay: Apoptosis assay (Annexin V-APC/PI); format: cell-based
# Method: Apoptosis assay was performed with the Annexin V-APC/propidium iodide (PI) apoptosis kit (Biolegend, USA). […] […] Cells were stained with the apoptosis kit according to the manufacturer's instructions. All samples of cells were collected for flow cytometry using a BD FACSCanto flow cytometer (BD, USA). Data analysis was accomplished using FlowJo software.
# [14] = Characterization of PQC NFs (TEM, DLS); format: physicochemical
# Method: Preparation and Characterization of PQC NFs: Briefly, PQC monomers in ethanol were added dropwise into deionized water under stirring. Ethanol in the solution was removed by vacuum rotary evaporation at 37° C. and the self-assembling PQC NFs were formed spontaneously. The aqueous nanofiber solution (0.02 mg mL^−1) was deposited on copper grids to prepare samples for transmission electron microscope (TEM). The morphology was observed by a Talos L120C TEM (Thermo Fisher Scientific, USA). The UV-Vis and fluorescence spectra were measured by a UV-Vis spectrometer (UV-1800, Shimadzu, Japan) and a fluorescence spectrometer (RF-6000, Shimadzu, Japan), respectively. NIR fluorescence imaging studies was performed by a ChemiDoc™ MP imaging system (Bio-Rad, USA). The ^1O2 production was detected using SOSG (Thermo Fisher Scientific, USA) as an indicator. Briefly, SOSG solution was added into drug solutions in 96 wells plate. […] Fluorescence intensity was determined by a microplate reader (Tecan, Switzerland). The ultrafiltration experiment of PQC NFs were conducted using a centrifuge (10k rpm, 10 min) and a centrifuge tube (10 kDa, Beckman Coulter, USA).
Compound,oxygen consumption rate (Mito stress test) (CSC cells [1]),tumorsphere formation [5],CSC tumorsphere (with Stella cell) growth [6],H&E staining of tumors (subcutaneous OSC-3 tumor [7]),antitumor effect (subcutaneous OSC-3 tumor [7]),antitumor efficacy (subcutaneous OSC-3 tumor [7]),morphological changes in mitochondria (TEM) (OSC-3 cells [8]; with light),mitochondrial membrane potential change (JC-1) (OSC-3 cells [9]),anticancer effect (OSC-3 cells [10]),further results
Cc1cc(N)c2ccccc2[n+]1CCCCCCCCCCNC(=O)c1nn(Cc2ccc(Cl)cc2Cl)c2ccccc12 [LM],decrease in basal mitochondrial respiration and spare respiration capacity,blocked tumorsphere formation in CSCs,inhibits CSC tumorsphere (with Stella cell) growth,–,–,–,–,–,–,"mitochondrial membrane potential (JC-1) (CSC cells [2]): decreased Δψm; IC50 ([3]; 72 h): 460 ± 50 nM; cell growth [4]: inhibitory effects; potency on other pancreatic tumor cells (Bxpc-3 and AsPc cells): more potent than LND, m104, mixture of LND and m104"
"Cc1cc(N)c2ccccc2[n+]1CCCCCCCCCC[n+]1c(C)cc(N)c2ccccc21 [DQA, dequalinium]",–,–,–,no significant cell death,did not show an obvious antitumor effect,did not show significant antitumor efficacy,morphologically changed mitochondria with and without light treatment,not effective enough to cause a signal change,did not show obvious anticancer effects,"IC50 (OSC-3 cells [10]; OSC-3, absence of light, 24 h + 24 h): 3000 nM"
pheophorbide a [PA],–,–,–,only a small portion of tumor tissue showed apoptosis/necrosis,effectively inhibited tumor growth but did not shrink the tumors,did not show significant antitumor efficacy,only caused some mitochondrial swelling,not effective enough to cause a signal change,did not show obvious anticancer effects,"ROS levels in tumors (OSC-3 tumors): high at 24 h post-injection and decreased quickly at later time points; subcellular colocalization (OSC-3 cells [11]): low-level colocalization with mitochondria or lysosomes; fluorescence within tumors over time (subcutaneous OSC-3 tumor [12]): nearly undetectable at the 4th day post-injection; apoptosis induction (OSC-3 cells [13]; 0.2 μM, with light): failed to induce apoptosis; Annexin V positive population (OSC-3 cells [13]; 2 μM, 24 h, light, another 12 h): 19.3%; morphological changes in mitochondria (TEM) (OSC-3 cells [8]; without light): healthy mitochondria; surface charge [14]: −11.5±1.3 mV; cytotoxicity (OSC-3 cells [10]; OSC-3, absence of light): did not show cytotoxicity even at 100 uM; IC50 (OSC-3 cells [10]; OSC-3, light treatment 30 mW cm^-2 for 30 s, 633 nm): 2570 nM"
"O=C(O)c1nn(Cc2ccc(Cl)cc2Cl)c2ccccc12 [LND, 1-(2,4-dichlorobenzyl)-1H-indazole-3-carboxylic acid]",no significant impact on OCRs,limited inhibition,no effect,–,–,–,–,–,–,"IC50 ([3]; CSC, 72 h treatment, read-out: IC50): 30000 ± 2200 nM"
